Measured values reported in PMC11915855, “The flavonoid-sensing regulator AefR is involved in modulating quorum sensing through repressing the MexEF-OprN efflux pump in Pseudomonas fluorescens” (mSystems, 2025).
Read-outs that look alike come from different tables or passages of the source.

How the values were obtained:
[1] = target: T1, AefR; test: ITC with purified His6-AefR; supported by EMSA (disrupts AefR-pmexEF-oprN interaction at […]); assay type: binding, Pseudomonas fluorescens
T1 construct: His6-AefR (aefR gene in a pET-28b-derived vector)

[2] = target: T1, AefR; test: as above; assay type: binding, Pseudomonas fluorescens; remark: listed apart in the source

`O=c1cc(-c2ccc(O)cc2)oc2cc(O)cc(O)c12` [apigenin] was tested, and the Kd [1] was 162 µM.

With `O=C(CCc1ccc(O)cc1)c1c(O)cc(O)cc1O` [phloretin] the Kd [2] was 2.79 µM.

Work on `O=c1c(O)c(-c2ccc(O)c(O)c2)oc2cc(O)cc(O)c12` [quercetin] yielded a Kd [2] of 640 µM.
